Experimental data published in publication PMC12154426, “TPP-Based Nanovesicles Kill MDR Neuroblastoma Cells and Induce Moderate ROS Increase, While Exerting Low Toxicity Towards Primary Cell Cultures: An In Vitro Study” (International Journal of Molecular Sciences, 2025).

Columns and labels:
[1] = system: HTLA 230; assay: DAPI and Annexin-V/PI staining (necrosis/apoptosis), HTLA 230; type: cell-based, human; conditions: 0.5 µM, 24 h
Description: (§1) Although it has been reported that diverse therapeutic approaches to counteract cancer, including chemotherapeutic drugs, gamma irradiation, suicide genes, or immunotherapy, are mediated through the induction of apoptosis, also necrosis, as well as other forms of cell death, that are not classified so far, may be triggered by anticancer therapies. Here, to evaluate if BPPB induced apoptosis or necrosis, both NB cell populations were labelled with Annexin-V-FITC/propidium iodide (PI) and analysed by confocal fluorescence microscopy, as reported in the literature. This is a standard procedure to monitor the progression of apoptosis and the possible presence of necrosis. […]
(§2) After the treatment, cells were washed with PBS and stained with the fluorescent DNA dye DAPI (1 µg/mL) for 30 min. After additional washing, the images were immediately acquired in the fluorescence mode using a Nikon AX R confocal microscope equipped with a PLAN APO 20× (Nikon Europe, B.V., Amstelveen, The Netherlands).
(§3) Apoptotic and necrotic cells were analysed, as described in Marengo et al.. […] After staining, the images were immediately acquired in fluorescence mode using a Nikon AX R confocal microscope equipped with a PLAN APO 20× (Nikon Europe, B.V., Amstelveen, The Netherlands).

[2] = system: HTLA ER; assay: DAPI and Annexin-V/PI staining (necrosis/apoptosis), HTLA ER; type: cell-based, human; conditions: 24 h
Description: as §1, §2, §3

[3] = system: HTLA 230; assay: DCFH assay of ROS (H2O2) production, HTLA 230; type: cell-based, human; conditions: for highest value of DCFH-positive cells: normalized for protein content, control = 1
Description: It has been reported that the administration of TPP-based compounds, including TPP-based bola amphiphilic nanovesicles such as BPPB, induce ROS overproduction, thus causing oxidative stress (OS), which has been widely reported to be involved in the anticancer effect of several chemotherapeutic drugs, including etoposide, doxorubicin [38], and cisplatin [39]. […] On the contrary, the role of ROS was scarcely present in PLX-resistant CMM cells exposed to the same concentrations of BPPB [13]. With these considerations, we evaluated ROS levels also in NB cells treated with BPPB, since this experiment would have been particularly helpful to understand whether (i) these nanovesicles’ preparation exerts its cytotoxic action on HTLA 230 and ER cells through ROS production, as in PLX-sensitive CMM cells; or (ii) the resistance acquired by HTLA ER based on high levels of antioxidants, following chronic treatment with etoposide, conferred resistance also to a preparation based on the use of nanovesicles (BPPBs). Moreover, the evaluation of ROS levels can be an indirect method to ascertain and confirm the presence of apoptosis, since as reported, low levels of ROS induce apoptosis and high levels induce necrosis.Therefore, to investigate the pro-oxidant action of BPPB also in HTLA 230 and HTLA ER NB cells, ROS levels were evaluated in both NB cell populations exposed for 24–72 h to increasing concentrations (0.1–2 µM) of BPPB using the DCFH essay (Figure 4). The results were reported as a percentage of cells positive to DCFH normalized for protein content. Raw fluorescence data are, in fact, not applicable since an increase in fluorescence could be due to a high number of cells but also to an increased production of H2O2 induced by the treatments. This is the reason why it is necessary to normalize the fluorescence data to the protein content. Other cellular assays measuring oxidative damage, including lipid peroxidation or protein carbonylation, are likely too complex for low-tier early hazard assessment or hazard screening. Conversely, the cellular DCFH assay is a simpler and widely used alternative, which measures intracellular ROS production by forming a fluorescent product (DCF) upon oxidation by free radicals produced by cells.
The production of H2O2 was evaluated using 2′-7′-dichlorofluorescein-diacetate (DCFH-DA; Merk Life Science S.r.l. Milan, Italy), as previously reported. Briefly, NB cells (10^4 cells/well) were seeded in 96-well plates (Corning) and treated. Then, cells were stained with 2′-7′ di-chloro-fluorescein-diacetate (DCFH-DA; Sigma-Aldrich) and incubated with 90% DMSO for an additional 10 min in the dark. The generated fluorescence intensity was monitored with a Perkin Elmer fluorometer (Perkin Elmer Life and Analytical Sciences, Shelton, WA, USA) at 485/530 nm excitation/emission. Values were normalized to the protein content.

[4] = system: RBCs; assay: Haemolytic toxicity on red blood cells; type: cell-based; conditions: for SI 24 h: 24 h exposure of NB cells; for SI 48 h: 48 h exposure of NB cells; for SI 72 h: 72 h exposure of NB cells
Description: The IC50 values reported in Table 3 were determined after 24, 48, and 72 h of exposure of NB cells and primary cortical astrocytes and neurons to BPPB, and the HC50 determined on RBCs after the time of experiments, as for protocol, was used to calculate the SIs according to Equation (1), as reported in Table 4.

Q: For `c1ccc([P+](CCCCCCCCCCCC[P+](c2ccccc2)(c2ccccc2)c2ccccc2)(c2ccccc2)c2ccccc2)cc1` [BPPB, 1,1-(1,12-dodecanediyl)-bis-[1,1,1]-triphenyl phosphonium di-bromide], which “apoptosis (Annexin V-FITC / PI labelling)” value [1] is on record?
A: Its value is “marked apoptosis”.

Q: And the “necrosis (DAPI labelling)” value [1]?
A: Its value is “seemed to induce the necrosis”.

Q: And the “apoptosis (Annexin V-FITC / PI labelling)” value ([2]; 1 µM)?
A: The value was “marked apoptosis”.

Q: And the “necrosis (DAPI labelling)” value ([2]; 1.0 µM)?
A: Its value is “did not induce the necrosis”.

Q: And the “concentration giving significant increase in ROS levels” value ([3]; 24 h)?
A: Its value is at least 0.5 µM.

Q: And the “highest value of DCFH-positive cells” value ([3]; 24 h)?
A: The value was 2.96.

Q: And the “increase in ROS with respect to the control” value ([3]; 24 h exposure)?
A: Its value is over 3 times.

Q: And the “average ROS production in HTLA 230 higher than in HTLA ER” value ([3]; 48 h)?
A: The value was 1.3 times.

Q: And the “concentration giving significant increase in ROS levels” value ([3]; 48 h)?
A: The value was at least 0.5 µM.

Q: What about the “highest value of DCFH-positive cells” value ([3]; 48 h) of the same molecule?
A: The value was 3.05.

Q: And the “average ROS production in HTLA 230 higher than in HTLA ER” value ([3]; 72 h)?
A: The value was 1.4 times.

Q: And the “concentration giving significant increase in ROS levels” value ([3]; 72 h)?
A: The value was at least 0.25 µM.

Q: What about the “highest value of DCFH-positive cells” value ([3]; 72 h, highest doses) of the same molecule?
A: The value was 5.8.

Q: And the “more efficient in inducing ROS overproduction than TiO2-Ta nanoparticles” value ([3]; HTLA 230 and HTLA ER, 24 h)?
A: Its value is 9.4–23.4 fold.

Q: And the “SI 24 h” value ([4]; RBCs vs. HTLA 230)?
A: The value was 16.81.

Q: What about the “SI 48 h” value ([4]; RBCs vs. HTLA 230) of the same molecule?
A: Its value is 33.66.

Q: And the “SI 72 h” value ([4]; RBCs vs. HTLA 230)?
A: The value was 39.98.

Q: What about the “SI 24 h” value ([4]; RBCs vs. HTLA ER) of the same molecule?
A: Its value is 12.56.

Q: And the “SI 48 h” value ([4]; RBCs vs. HTLA ER)?
A: The value was 11.49.

Q: And the “SI 72 h” value ([4]; RBCs vs. HTLA ER)?
A: The value was 12.98.
